Results published in patent US20260274833A1 (NiKang Therapeutics, Inc., priority 2022, published 2026).
pIC50: −log10 of the molar value.

Target: T1, CDK2 (Homo sapiens, UniProt P24941)
T1 construct: endogenous in cells; host or cells: OVCAR3 cells
Assay: Phospho-RB measurement in OVCAR3 cells (HTRF phospho-RB cellular kit)
Type: cell-based
Conditions: inhibition of RB phosphorylation at S807/811 (HTRF, TR-FRET ratio 665/620), 24 h compound treatment, 0.3 to 10,000 nM
Outline: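 IC50 came from a four-parameter logistic fit of the DMSO-normalized TR-FRET ratio (665/620 nm). That ratio reflects RB phosphorylation at S807/811, read with an HTRF antibody pair 4 h after adding lysate at room temperature.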

Row | pIC50 | SMILES
1 | 5.84 | CC(C)(C)c1nc(-c2cccc(NS(=O)(=O)N3Cc4cccc(OCCN)c4C3)c2F)c(-c2ccnc(NC3CCN(S(C)(=O)=O)CC3)n2)s1 [Example 244, 4-(2-aminoethoxy)-N-(3-(2-(tert-butyl)-5-(2-((1-(methylsulfonyl)piperidin-4-yl)amino)-pyrimidin-4-yl)thiazol-4-yl)-2-fluorophenyl)-isoindoline-2-sulfonamide]
2 | 6.47 | CC(C)(C)c1nc(-c2cccc(NS(=O)(=O)N3CCc4c(CN5CCOCC5)cccc43)c2F)c(-c2ccnc(NC3CCN(S(C)(=O)=O)CC3)n2)s1 [Example 245, N-(3-(2-(tert-butyl)-5-(2-((1-(methylsulfonyl)piperidin-4-yl)amino)-pyrimidin-4-yl)thiazol-4-yl)-2-fluorophenyl)-4-(morpholinomethyl)-indoline-1-sulfonamide]
3 | 6.48 | CC(C)(C)c1nc(-c2cccc(NS(=O)(=O)N3Cc4ccc(CC#N)cc4C3)c2F)c(-c2ccnc(NC3CC4(C3)CS(=O)(=O)C4)n2)s1 [Example 246, N-(3-(2-(tert-butyl)-5-(2-((2,2-dioxido-2-thiaspiro[3.3]heptan-6-yl)amino)-pyrimidin-4-yl)thiazol-4-yl)-2-fluoro-phenyl)-5-(cyanomethyl)-isoindoline-2-sulfonamide]
4 | 6.93 | CC(C)(C)c1nc(-c2cccc(NS(=O)(=O)N3Cc4cccc(OCC#N)c4C3)c2F)c(-c2ccnc(NC3CCN(S(C)(=O)=O)CC3)n2)s1 [Example 247, N-(3-(2-(tert-butyl)-5-(2-((1-(methylsulfonyl)-piperidin-4-yl)amino)-pyrimidin-4-yl)thiazol-4-yl)-2-fluoro-phenyl)-4-(cyanomethoxy)-isoindoline-2-sulfonamide]
5 | 6.39 | CN(C)Cc1ccc(Nc2nccc(-c3sc(C(C)(C)C)nc3-c3cccc(NS(=O)(=O)N4CCc5ccc(C#N)cc54)c3F)n2)cc1 [Example 248, N-(3-(2-(tert-butyl)~5-(2-((4-((dimethylamino)-methyl)phenyl)-amino)pyrimidin-4-yl)thiazol-4-yl)-2-fluorophenyl)-6-cyanoindoline-1-sulfonamide]
6 | 6.16 | CN1CCN(c2ccc(Nc3nccc(-c4sc(C(C)(C)C)nc4-c4cccc(NS(=O)(=O)N5CCc6ccc(C#N)cc65)c4F)n3)cc2)CC1 [Example 249, N-(3-(2-(tert-butyl)-5-(2-((4-(4-methyl-piperazin-1-yl)phenyl)amino)pyrimidin-4-yl)-thiazol-4-yl)-2-fluoro-phenyl)-6-cyanoindoline-1-sulfonamide]
7 | 6.24 | CC(C)(C)c1nc(-c2cccc(NS(=O)(=O)N3CCc4ccc(C#N)cc43)c2F)c(-c2ccnc(Nc3ccc(N4CCN(C5COC5)CC4)cc3)n2)s1 [Example 250, N-(3-(2-(tert-butyl)-5-(2-((4-(4-(oxetan-3-yl)-piperazin-1-yl)phenyl)amino)-pyrimidin-4-yl)thiazol-4-yl)-2-fluoro-phenyl)-6-cyanoindoline-1-sulfonamide]
8 | 5.81 | Cn1ncc2c1CN(S(=O)(=O)Nc1cccc(-c3nc(C(C)(C)C)sc3-c3ccnc(Nc4ccc(N5CCNCC5)cc4)n3)c1F)C2 [Example 251]
9 | 5.48 | Cn1cc2c(n1)CN(S(=O)(=O)Nc1cccc(-c3nc(C(C)(C)C)sc3-c3ccnc(Nc4ccc(N5CCNCC5)cc4)n3)c1F)C2 [Example 252, N-(3-(2-(tert-butyl)-5-(2-((4-(piperazin-1-yl)-phenyl)amino)pyrimidin-4-yl)-thiazol-4-yl)-2-fluorophenyl)-2-methyl-2,6-dihydropyrrolo-[3,4-c]pyrazole-5(4H)-sulfonamide]
10 | 6.50 | CC(C)(C)c1nc(-c2cccc(NS(=O)(=O)N3Cc4ccc(C(F)F)cc4C3)c2F)c(-c2ccnc(NC3CCN(S(C)(=O)=O)CC3)n2)s1 [Example 254, N-(3-(2-(tert-butyl)-5-(2-((1+ (methylsulfonyl)-piperidin-4-yl)amino)-pyrimidin-4-yl)thiazol-4-yl)-2-fluoro-phenyl)-5-(difluoromethyl)-isoindoline-2-sulfonamide]
11 | 6.17 | CC(C)(C)c1nc(-c2cccc(NS(=O)(=O)N3Cc4ccc(C(F)F)cc4C3)c2F)c(-c2ccnc(NC3CC4(C3)CS(=O)(=O)C4)n2)s1 [Example 255, N-(3-(2-(tert-butyl)-5-(2-((2,2-dioxido-2-thiaspiro[3.3]heptan-6-yl)amino)-pyrimidin-4-yl)thiazol-4-yl)-2-fluoro-phenyl)-5-(difluoromethyl) isoindoline-2-sulfonamide]
12 | 5.51 | CC(C)(C)c1nc(-c2cccc(NS(=O)(=O)N3Cc4ccccc4C34CC4)c2F)c(-c2ccnc(NC3CCN(S(C)(=O)=O)CC3)n2)s1 [Example 256, N-(3-(2-(tert-butyl)-5-(2-((1-(methylsulfonyl)-piperidin-4-yl)amino)-pyrimidin-4-yl)thiazol-4-yl)-2-fluoro-phenyl)spiro [cyclopropane-1,1′-isoindoline]-2′-sulfonamide]
13 | 5.53 | CC(C)(C)c1nc(-c2cccc(NS(=O)(=O)N3CCc4ccc(C(C)(C)O)cc43)c2F)c(-c2ccnc(NC3CC4(C3)CS(=O)(=O)C4)n2)s1 [Example 257, N-(3-(2-(tert-butyl)-5-(2-((2,2-dioxido-2-thiaspiro[3.3]heptan-6-yl)amino)-pyrimidin-4-yl)thiazol-4-yl)-2-fluoro-phenyl)-6-(2-hydroxypropan-2-yl)indoline-1-sulfonamide]
14 | 6.36 | CNc1cccc2c1N(S(=O)(=O)Nc1cccc(-c3nc(C(C)(C)C)sc3-c3ccnc(NC4CCN(S(C)(=O)=O)CC4)n3)c1F)CC2 [Example 258, N-(3-(2-(tert-butyl)-5-(2-((1-(methylsulfonyl)-piperidin-4-yl)amino)-pyrimidin-4-yl)thiazol-4-yl)-2-fluoro-phenyl)-7-(methylamino) indoline-1-sulfonamide]
15 | 5.69 | CN(c1cccc2c1NCC2)S(=O)(=O)Nc1cccc(-c2nc(C(C)(C)C)sc2-c2ccnc(NC3CCN(S(C)(=O)=O)CC3)n2)c1F [Example 259, N-(3-(2-(tert-butyl)-5-(2-((1-(methylsulfonyl)-piperidin-4-yl)amino)-pyrimidin-4-yl)thiazol-4-yl)-2-fluoro-phenyl)-(N-methyl-N-indolin-7-yl)-amine-sulfonamide]
16 | 6.18 | CC(C)(C)c1nc(-c2cccc(NS(=O)(=O)N3CCc4ccc(C(C)(C)C#N)cc43)c2F)c(-c2ccnc(NC3CC4(C3)CS(=O)(=O)C4)n2)s1 [Example 260, N-(3-(2-(tert-butyl)-S-(2-((2,2-dioxido-2-thiaspiro[3.3]heptan-6-yl)amino)-pyrimidin-4-yl)thiazol-4-yl)-2-fluoro-phenyl)-6-(2-cyanopropan-2-yl)indoline-1-sulfonamide]
17 | 6.16 | CC(C)(C)c1nc(-c2cccc(NS(=O)(=O)N3CCc4ccc(S(C)(=O)=O)cc43)c2F)c(-c2ccnc(NC3CC4(C3)CS(=O)(=O)C4)n2)s1 [Example 261, N-(3-(2-(tert-butyl)-5-(2-((2,2-dioxido-2-thiaspiro[3.3]heptan-6-yl)amino)-pyrimidin-4-yl)thiazol-4-yl)-2-fluoro-phenyl)-6-(methylsulfonyl)-indoline-1-sulfonamide]
18 | 7.51 | CC(C)(C)c1nc(-c2cccc(NS(=O)(=O)N3Cc4cccc(C(F)F)c4C3)c2F)c(-c2ccnc(NC3CC4(C3)CS(=O)(=O)C4)n2)s1 [Example 262, N~(3-(2-(tert-butyl)-5-(2-((2,2-dioxido-2-thiaspiro[3.3]heptan-6-yl)amino)-pyrimidin-4-yl)thiazol-4-yl)-2-fluoro-phenyl)-4-(difluoromethyl)-isoindoline-2-sulfonamide]
19 | 6.93 | N#Cc1ccc2c(c1)N(S(=O)(=O)Nc1cccc(-c3nc(C45CC(C4)C5)sc3-c3ccnc(NC4CCN(S(=O)(=O)N5CCNCC5)CC4)n3)c1F)CC2 [Example 263, N-(3-(2-(bicyclo [1.1.1]pentan-1-yl)-5-(2-((1-(piperazin-1-ylsulfonyl)piperidin-4-yl)amino)-pyrimidin-4-yl)thiazol-4-yl)-2-fluorophenyl)-6-cyanoindoline-1-sulfonamide]
20 | 5.74 | O=S1(=O)CC2(CC(Nc3nccc(-c4sc(C56CC(C5)C6)nc4-c4cccc(NS(=O)(=O)N5CCc6ccncc65)c4F)n3)C2)C1 [Example 264, N-(3-(2-(bicyclo [1.1.1]pentan-1-yl)-5-(2-((2,2-dioxido-2-thiaspiro[3.3]heptan-6-yl)amino)-pyrimidin-4-yl)thiazol-4-yl)-2-fluorophenyl)-2,3-dihydro-1H-pyrrolo[2,3-c]pyridine-1-sulfonamide]
21 | 5.28 | O=S1(=O)CC2(CC(Nc3nccc(-c4sc(C56CC(C5)C6)nc4-c4cccc(NS(=O)(=O)N5C6CCC5CC6)c4F)n3)C2)C1 [Example 265, N-(3-(2-(bicyclo[1.1. 1]pentan-1-yl)-5-(2-((2,2-dioxido-2-thiaspiro[3.3]heptan-6-yl)amino)-pyrimidin-4-yl)thiazol-4-yl)-2-fluorophenyl)-7-azabicyclo[2.2.1]-heptane-7-sulfonamide]
22 | 5.07 | O=S1(=O)CC2(CC(Nc3nccc(-c4sc(C56CC(C5)C6)nc4-c4cccc(NS(=O)(=O)N5C6CCC5CC(F)(F)C6)c4F)n3)C2)C1 [Example 266, N-(3-(2-(bicyclo [1.1.1]pentan-1-yl)-5-(2-((2,2-dioxido-2-thiaspiro[3.3]heptan-6-yl)amino)-pyrimidin-4-yl)thiazol-4-yl)-2-fluorophenyl)-3,3-difluoro-8-azabicyclo-[3.2.1]octane-8-sulfonamide]
23 | 5.03 | O=S1(=O)CC2(CC(Nc3nccc(-c4sc(C56CC(C5)C6)nc4-c4cccc(NS(=O)(=O)N5CC6CCC5CC6)c4F)n3)C2)C1 [Example 267, (1s,4s)-N-(3-(2-(bicyclo[1.1.1]pentan-]-yl)-5-(2-((2,2-dioxido-2-thiaspiro-[3.3]heptan-6-yl)amino)pyrimidin-4-yl)thiazol-4-yl)-2-fluorophenyl)-2-azabicyclo[2.2.2] octane-2-sulfonamide]
